Results as given in patent US20260265267A1, “NOVEL COMPOUNDS WITH MTORC2-INHIBITORY ACTIVITY AND USES THEREOF” (Aliad Biopharma, priority 2023, published 2026).

Columns and labels:
[1] = test system: 5×FAD Alzheimer's disease model mice; assay: Passive avoidance test in 5×FAD mice (long-term memory); type: in vivo; settings: 5 mg/kg, 14 days / 2 weeks (FIG. 7)
Description: In order to evaluate the efficacy of HN2210, HN2213, and HN2313 on Alzheimer's disease-related symptoms, specifically regarding 1) memory and cognitive impairment, 2) amyloid plaques, 3) neurofibrillary tangles (NFTs), and 4) brain inflammation, an in vivo efficacy assessment of HN2210, HN2213 and HN2313 was conducted using 5×FAD Alzheimer's disease model mice. The 5×FAD mice were purchased from Jackson Lab, USA (Cat #034840-JAX) and crossed once with C57bl6 mice to produce F1 heterozygous offspring (Het). The compound was administered via intraperitoneal injection to 6-month-old 5×FAD Het mice, followed by behavioral testing. The normal control mice, which were littermates of the 5×FAD Het mice, were aged to 6 months and received DMSO injection at the same volume.
Specifically, to mice trained to avoid bright light three times daily, an electric foot shock (1 mA, 300 g) was applied for 3 seconds in a dark room at the same time on the next day. After 24 hours, the mice were placed again in the same room, and the avoidance response by light, that is, the time taken to move from the bright room to the dark room was measured. At 24 hours after habituation training, the mice were placed back into the bright room, and the latency time for entering the dark room was recorded over a period of 720 seconds.

[2] = target: T1, mTORC2 (Homo sapiens, UniProt P42345); assay: mTORC2 inhibitory activity in HeLa cells (Akt Ser473 phosphorylation, Western blot); type: cell-based; settings: for selective inhibition of mTORC2: 40 μM, versus mTORC1; for selective inhibition of mTORC2 / remaining activity at 40 µM: 9 hours; for remaining activity at 40 µM: read-out: pSer473-AKT/AKT (% control); for inhibition at 40 µM: HeLa, 9 h, read-out: reduction in Akt Ser473 phosphorylation compared to the control group
T1 construct: the following experiments were conducted in HeLa cells; endogenous in cells; host or cells: HeLa
Description: (§1) Specifically, HeLa cells were cultured in a 5% CO2 incubator at 37° C. in DMEM (Dulbecco's Modified Eagles Media) medium supplemented with 10% FBS, penicillin (100 unit/ml), and streptomycin (100 μg/ml). Cultivation was started by seeding 4×10^5 cells in a 100 mm culture dish, and subculture was carried out every 3 days.
(§2) Human cell line HeLa cells were seeded in a 60 mm culture dish at a density of 2×10^5 cells/plate, and cultured for 24 hours. Then, HeLa cells were treated with 70 types of compounds at a concentration of 40 μM each for 9 hours. HeLa cells were washed twice with cold 1×PBS, and then lysed with 100 μl of RIPA buffer (50 mM Tris-HCl (pH7.4), 0.25% sodium deoxycholate, 50 mM NaF, 1% NP-40, 150 mM NaCl, 1 mM β-glycerophosphate, 1 mM PMSF, 1 mM NaVO4, 1 μg/ml leupeptin, 1 μg/ml pepstatin A, 10 nM calyculin A, 10 μg/ml aprotinin, 1 mM EDTA) to hemolyze the cell membrane. Then, the lysates were centrifuged at 12,000 rpm at 4° C. for 10 minutes to collect the supernatant, which is cell lysate. Protein concentration in the cell lysate was determined using the BCA protein assay kit (Thermo Fisher Scientific), and equal amounts of protein were separated by SDS-PAGE.
(§3) Western blot analysis was performed by the following method. […] After washing the membrane three times for 5 minutes each with TBS-T buffer, it was incubated with primary antibodies diluted in TBS-T buffer containing 5% skim milk or 5% BSA overnight at 4° C. Subsequently, the membrane was washed three times for 5 minutes each with TBS-T buffer, and then incubated with secondary antibodies diluted in TBS-T buffer containing 5% skim milk at room temperature for 30 minutes. The membrane was washed five times for 5 minutes each with TBS-T buffer containing 5% skim milk, and then the protein bands bound by the secondary antibody were detected using a chemiluminescence method. The primary antibodies used were Akt (cell signaling, #4691), pAkt(S473) (Cell signaling, #4060), p70S6K (Cell signaling, #S6198), pp70S6K(T389) (cell signaling, #9205S), LC3-II (MBL, #PM036), and the secondary antibodies used were HRP conjugated anti-rabbit (Jackson immunoresearch laboratory, #711-035-152) and HRP conjugated anti-mouse IgG (Jackson immunoresearch laboratory, #515-035-072).
As an mTORC2 activity indicator in HeLa cells, the level of Akt Ser473 phosphorylation was selected as a marker, and the phosphor-Akt (Ser473) signal obtained from Western blot analysis was normalized to the pan-Akt signal, and the data were expressed as a percentage relative to the control group treated with DMSO only, which is a vehicle.

[3] = target: T2, mTORC1 (Homo sapiens, UniProt P42345); assay: mTORC1 inhibitory activity in HeLa cells (p70S6K Thr389 phosphorylation, Western blot); type: cell-based; settings: 9 hours; for remaining activity at 40 µM: read-out: pThr389-S6K/S6K (% control)
T2 construct: the following experiments were conducted in HeLa cells; endogenous in cells; host or cells: HeLa
Description: as §1, §2, §3
As an mTORC1 activity indicator in HeLa cells, the level of p70S6K Thr389 phosphorylation was selected as a marker, and the level of phosphor-p70S6K (Thr389) signal measured by Western blot analysis was normalized to a level of pan-p70S6K signal, and then expressed as a percentage of the control group treated with only DMSO, which is a vehicle.

[4] = test system: mTORC2; assay: mTORC2 inhibitory activity in primary cultured cerebral neurons (Akt Ser473 phosphorylation); type: cell-based, SD mice; settings: for effect on Akt Ser473 phosphorylation / decrease in AKT Ser473 phosphorylation at 24 hours: 500 nM or 100 nM; for effect on Akt Ser473 phosphorylation / pSer473-AKT/AKT (% control): 24 hours
Description: Specifically, primary neural cells were cultured from the cerebral cortex of E16 embryos of SD mice with a gestational age 16-day (Orient Bio). The extracted brain was separated into the left and right hemispheres, the meninges were removed, and the brains were treated with trypsin in Ca^2+/Mg^2+-free HBSS solution.
The time-dependent changes in Akt Ser473 phosphorylation, Akt Thr308 phosphorylation, and LC3-II levels were measured by Western blot analysis.

[5] = test system: mTORC1; assay: mTORC1 inhibitory activity in primary cultured cerebral neurons (S6K Thr389 phosphorylation); type: cell-based, SD mice; settings: for effect on S6K Thr389 phosphorylation: 500 nM or 100 nM, time course to 24 hours (HN2304: from 6 to 24 hours); for pThr389-S6K/S6K (% control): 24 hours
[6] = test system: LC3-II; assay: LC3-II levels in primary cultured cerebral neurons; type: cell-based, SD mice; settings: for effect on LC3-II: 500 nM or 100 nM, time course to 24 hours; for LC3-II (% control): 24 hours
Description: Specifically, primary neural cells were cultured from the cerebral cortex of E16 embryos of SD […] with a gestational age 16-day (Orient Bio). The extracted brain was separated into the left and right hemispheres, the meninges were removed, and the brains were treated with trypsin in Ca^2+/Mg^2+-free HBSS solution. […] The cells were seeded at a density of 19,000 cells/cm^2 onto 35 mm culture dishes coated with 50 μg/ml poly-D-Lysine (Sigma, P0899) and 1 μg/ml laminin (Invitrogen, 23017-015), and then maintained in neurobasal complete media supplemented with B27 (Gibco, 17504-044) in a 5% CO2 incubator.
Therefore, the evaluation of mTORC2 inhibitory activity in primary cultured cerebral cells was conducted using the same method as in Experimental Example 1, except that each compound was treated at concentrations of 500 nM or 100 nM for 24 hours. The time-dependent changes in Akt Ser473 phosphorylation, Akt Thr308 phosphorylation, and LC3-II levels were measured by Western blot analysis.

[7] = test system: LC3-II; assay: LC3-II formation as indicator of autophagy in HeLa cells (Western blot); type: cell-based, human; settings: Homo sapiens, 9 hours, read-out: LC3-II (% control)
Description: as §1, §2, §3
LC3-II formation was selected as an indicator of autophagy in HeLa cells, and the LC3-II signal obtained from Western blot analysis was normalized to the pan-Akt signal and the data were expressed as a percentage relative to the control group treated with DMSO only, which is a vehicle.

selective inhibition of mTORC2 [2]	remaining activity at 40 µM [2]	inhibition at 40 µM [2]	remaining activity at 40 µM [3]	Compound	activity at 40 µM [7]	further results
				CO[C@H]1C[C@@H]2CC[C@@H](C)[C@@](O)(O2)C(=O)C(=O)N2CCCC[C@H]2C(=O)O[C@H]([C@H](C)C[C@@H]2CC[C@@H](O)[C@H](OC)C2)CC(=O)[C@H](C)/C=C(\C)[C@@H](O)[C@@H](OC)C(=O)[C@H](C)C[C@H](C)/C=C/C=C/C=C/1C [rapamycin, reference compound]		passive avoidance latency time, % of the normal control level [1]: ~36%
selectively inhibit mTORC2	69%	> 20%	95%	O=C1c2cc(F)c(N3CCC(Cc4ccccc4)CC3)cc2COc2cc3c(cc21)OCO3 [HN2222, 8-(4-benzylpiperidin-1-yl)-9-fluoro[2]benzoxepino[3,4-f]-1,3-benzodioxol-11(6H)-one]	89%	
selectively inhibit mTORC2	28%	> 20%	223%	COc1cc2c(cc1OC)C(=O)c1cc(F)c(N3CCCCC3)cc1CC2 [HN2315, 3-fluoro-7,8-dimethoxy-2-(piperidin-1-yl)-10,11-dihydro-5H-dibenzo[a,d][7]annulen-5-one]	620%	
selectively inhibit mTORC2	44%		95%	COc1cc2c(cc1OC)C(=O)c1cc(-c3ccoc3)ccc1CS2 [HN2308, 9-(3-furanyl)-2,3-dimethoxydibenzo[b,e]thiepin-11(6H)-one]		effect on S6K Thr389 phosphorylation ([3]; 40 μM): no effect; selectivity for mTORC2 over mTORC1 [4]: selective mTORC2 inhibitors; pSer473-AKT/AKT (% control) ([4]; 100 nM): 46 % control; effect on Akt Ser473 phosphorylation [4]: reduce Akt Ser473 phosphorylation; decrease in AKT Ser473 phosphorylation at 24 hours [4]: 54%; AKT Ser473 phosphorylation from 1 to 12 hours [4]: increased AKT Ser473 phosphorylation significantly; pThr389-S6K/S6K (% control) ([5]; 100 nM): 104 % control; effect on S6K Thr389 phosphorylation [5]: no effect; LC3-II (% control) ([6]; 100 nM): 119 % control; effect on LC3-II [6]: no effect
selectively inhibit mTORC2	67%	> 20%	99%	O=C1c2cc(-c3ccc(Cl)cc3)ccc2COc2cc3c(cc21)OCO3 [HN2214, 9-(4-chlorophenyl)[2]benzoxepino[3,4-f]-1,3-benzodioxol-11(6H)-one]	154%	
selectively inhibit mTORC2	74%	> 20%	107%	COc1ccc(CCNc2ccc3c(c2F)COc2cc4c(cc2C3=O)OCO4)cc1 [HN2233, 8-((4-methoxyphenethyl)amino)-7-fluoro[2]benzoxepino[3,4-f]-1,3-benzodioxol-11(6H)-one]	121%	
selectively inhibit mTORC2	38%	> 20%	224%	Cc1ccc(-c2ccc3c(c2)C(=O)c2cc4c(cc2OC3)OCO4)cc1 [HN2217, 9-(p-tolyl)[2]benzoxepino[3,4-f]-1,3-benzodioxol-11(6H)-one]	149%	
selectively inhibit mTORC2	48%	> 20%	136%	O=C1c2cc3c(cc2OCc2c1ccc(N1CCC(Cc4ccccc4)CC1)c2F)OCO3 [HN2232, 8-(4-benzylpiperidin-1-yl)-7-fluoro[2]benzoxepino[3,4-f]-1,3-benzodioxol-11(6H)-one]	64%	
selectively inhibit mTORC2	54%	> 20%	191%	CN(C)c1cc2c(cc1F)C(=O)c1cc3c(cc1OC2)OCO3 [HN2209, 8-(dimethylamino)-9-fluoro[2]benzoxepino[3,4-f]-1,3-benzodioxol-11(6H)-one]	124%	

Compound	selective inhibition of mTORC2 [2]	remaining activity at 40 µM [2]	inhibition at 40 µM [2]	remaining activity at 40 µM [3]	activity at 40 µM [7]	further results
COc1cc2c(cc1OC)C(=O)c1cc(Br)ccc1CS2 [HN2304, 9-bromo-2,3-dimethoxydibenzo[b,e]thiepin-11(6H)-one]	selectively inhibit mTORC2	44%	> 20%	204%		selectivity for mTORC2 over mTORC1 [4]: selective mTORC2 inhibitors; effect on Akt Ser473 phosphorylation [4]: reduce Akt Ser473 phosphorylation; decrease in AKT Ser473 phosphorylation at 24 hours [4]: 17%; pSer473-AKT/AKT (% control) ([4]; 500 nM): 82 % control; AKT Ser473 phosphorylation from 1 to 12 hours [4]: significantly increased; effect on S6K Thr389 phosphorylation [5]: markedly increased; pThr389-S6K/S6K (% control) ([5]; 500 nM): 504 % control; effect on LC3-II [6]: not affected; LC3-II (% control) ([6]; 500 nM): 82 % control
